Assay results from patent publication US8802635B2, “Antioxidant, anti-inflammatory, anti-radiation, metal chelating compounds and uses thereof” (Oneday—Biotech And Pharma Ltd., priority 2011, dated 2014).
Non-standard residues stand in square brackets, D forms with d. βAla = NCCC(=O)O

Assays:
[1] = test system: granulocytes at the peritoneal lavages; experiment: Ovalbumin-induced hypersensitivity: percentage of granulocytes in peritoneal lavage (FACS); assay type: in vivo, mice; settings: 125 mg/kg; Mann-Whitney with Bonferroni correction, p<=0.0125
Experimental: Hypersensitivity was induced as described in Example 5. The mice were treated according to the above protocol with PBS alone (“PBS”, no OVA and no Alum), OVA (“OVA”), OVA+CB3 104 mg/kg, OVA+DY-66 83 mg/kg and OVA+DY-66 125 mg/kg. In all groups, 9 mice were used except for OVA+DY-66 83 mg/kg, where 10 mice were used.
At day 16 the animals were sacrificed, the peritoneum was washed with 4-5 ml of sterile PBS, centrifuged and the cells were re-suspended in sterile PBS containing FCS 2%.
Percentage of granulocytes at the peritoneal lavages were measured by the use of FACS machine analysis of all cells during 10 second flow, followed by a careful analysis of the FACS dot plots.

NF-κB = experiment: Nuclear translocation of NF-κB in lung, zymosan-induced inflammation; assay type: in vivo, mice; settings: lung tissue, 24 hours after zymosan; i.p. dosing as Example 3; p<0.05
Experimental: Male BALB/c mice were randomly allocated into the following experimental groups:
The peptides were administered by an intraperitoneal (i.p.) route of administration as described in Example 3.
The peptides were formulated in D5W as described in Example 3. The vehicle control was D5W.
At 24 hours after administration of zymosan, animals were euthanized and assessed for inflammation by an NF-κB analysis of lung tissue.
Tissues were homogenized and nuclear extracts prepared via centrifugation. […]

N-acetyl-Cys-βAla-His-Cys-NH2 (Ac-C[βAla]HC-NH2; cysteine pairing not given here) [DY-66]
difference in percentage of granulocytes (medians) between OVA and OVA+peptide [1]: highly significant
inhibition of the increase in nuclear p65 translocation (NF-κB): ca. 80%
